From patent US6774116B2, “Prodrugs via acylation with cinnamate” (priority 2001, dated 2004)

Assays:
Assay type in all cases: in vivo, nude mice
[1] = test system: Human colon carcinoma cell line LS-180; experiment: Treatment of human colon carcinoma LS-180 xenograft with A—Z—CINN 551
Procedure: Human colon carcinoma cell line LS-180 is grown in cell culture as described (Kinuya et.al. 2001. J. Nucl. Med. 42:596-600). 1×10^7 cells/mouse are implanted s.c. into nude mice. When the tumors reached 150-200 mm^3 in size, A—Z—CINN 551 is used to treat the tumor as follows; 0.1-1.0 mg of A—Z—CINN 551 (1 mg mAb protein with ˜25 ug paclitaxel covalently attached) is injected i.v. via tail vein into mice with the tumor. After 6 hours, mice that received 0.1, 0.5 or 1.0 mg of A—Z—CINN […] are anesthetized with a Ketamine/Rompun mixture. A 16 G needle is used to create a hole in the skin and a 1 mm fiber optic probe is inserted up to the tumor. The tumor is exposed to white light for 5 minutes with a power of about 0.5 mW/cm^2. […] All mice are kept under “red lights” to prevent unnecessary light exposure and activation of A—Z—CINN 551 for 72 hours post injection, then returned to normal light/dark cycle.

[2] = test system: Human lung carcinoma cell line H2987; experiment: Treatment of human lung carcinoma H2987 xenograft with A—Z—CINN 441
Procedure: MAb BR110 is a murine mAb to a 66-kDa glycoprotein that is found on the cell surface of human lung, colon and breast tumor cells. Human lung carcinoma cell line H2987 is grown in cell culture as described (U.S. Pat. No. 5,840,854). 1×10^7 cells/mouse are implanted s.c. into a nude mice. When the tumors reached 150-200 mm^3 in size, A—Z—CINN 441 is used to treat the tumor as follows: 0.1-1.0 mg of A—Z—CINN 441 (1 mg mAb protein with ˜25 ug paclitaxel covalently attached) is injected i.v. via tail vein into mice with the tumor. After 6 hours, mice that receive 0.1, 0.5 or 1.0 mg of A—Z—CINN 441 are anesthetized with a Ketamine/Rompun mixture. A 16G needle is used to create a hole in the skin and a 1 mm fiber optic probe is inserted up to the tumor. The tumor is exposed to white light for 5 minutes with a power of about 0.5 mW/cm^2. […] All mice are kept under “red lights” to prevent light activation of the drug, for 72 hours post injection, then returned to normal light/dark cycle. […] Groups that receive antibody and free drug (unlinked) show tumor growth, and by 28 days the mice either die or have tumors>800 mm^3.

[3] = test system: Human breast cancer xenographs; experiment: Treatment of human breast carcinoma xenographs with A—Z—CINN 361
Procedure: Human breast cancer xenographs are prepared as described (Burak et.al. 1998. Nucl. Med. Biol. 25:633-637) Xenographs are implanted s.c. into a nude mice. When the tumor reached 150-200 mm^3 in size, A—Z—CINN 361 is used to treat the tumor as follows; 0.1-1.0 mg of A—Z—CINN 361 (1 mg mAb protein with ˜25 ug paclitaxel covalently attached) is injected i.v. via tail vein into mice with the tumor. After 6 hours, mice that receive 0.1, 0.5 or 1.0 mg of A—Z—CINN 361 are anesthetized with a Ketamine/Rompun mixture. A 16G needle is used to create a hole in the skin and a 1 mm fiber optic probe is inserted up to the tumor. The tumor is exposed to white light for 5 minutes with a power of about 0.5 mW/cm^2. […] All mice are kept under “red lights” to prevent unnecessary light exposure and activation of A—Z—CINN 361 for 72 hours post injection, then returned to normal light/dark cycle.

[4] = in 7 days, light treatment 6 hours after i.v. injection, 0.1, 0.5 or 1.0 mg

Substance: A7-mAb-S-Mal-PEG3400-N—CINN-paclitaxel [A—Z—CINN 551]
- tumor shrinkage [1, 4]: > 50%
- tumor size by 28 days ([1]; light treatment): less than 50 mm^3
- tumor size at 28 days ([1]; no light stimulation): smaller than 100 mm^3

Substance: BR110-mAb-S-Mal-PEG3400-N—CINN-paclitaxel [A—Z—CINN 441]
- tumor shrinkage [2, 4]: > 50%
- tumors by 28 days ([2]; light treatment): not detectable
- tumor size at 28 days ([2]; no light stimulation): smaller than 50 mm

Substance: NR-LU-10 mAb-S-Mal-PEG3400-N—CINN-paclitaxel [A—Z—CINN 361]
- tumor shrinkage [3, 4]: > 50%
- tumor size by 28 days ([3]; light treatment): less than 50 mm^3
- tumor size at 28 days ([3]; no light stimulation): smaller than 100 mm^3
